Read-outs that look alike come from different tables or passages of the source.
Tests used:
[1] = biological target: T1, recombinant HIV-1 integrase (Human immunodeficiency virus type 1 group M subtype B, UniProt P03366); test: HIV-1 integrase 3′ processing and strand transfer assay; format: biochemical
T1 construct: recombinant HIV-1 integrase; S. Hughes, ABL Basic Research NCI-FCRDC, Frederick Md
Method: (§1) The 5-bromovaleroyl thioester, compound 44, and two 5-pyridiniovaleroyl thioesters, compounds 45and 47, were analyzed in mechanistic and target-based assays. […] Assays for activity against HIV-1 reverse transcriptase rAdT (template/primer) and rCdG (template/primer) using recombinant HIV-1 reverse transcriptase (S. Hughes, ABL Basic Research NCI-FCRDC, Frederick Md.) were performed as described by Rice (1997) supra. Substrate cleavage of recombinant HIV-1 protease in the presence of test compounds using an HPLC-based methodology with the artificial substrate Ala-Ser-Glu-Asn-Try-Pro-Ile-Val-amide (Multiple Peptide Systems, San Diego Calif.) was performed as described by Rice (1997) supra. The ability of recombinant HIV-1 integrase (S. Hughes, ABL Basic Research NCI-FCRDC, Frederick Md.) to carry out 3′ processing and strand transfer activities in the presence of test compounds was performed as described by Buckheit (1994) AIDS Res. Hum. Retroviruses 10:1497-1506, and Turpin (1998) Antimicrob. Agents Chemother. 42: 487-494.

[2] = biological target: T2, Pr55gag precursor (Human immunodeficiency virus type 1 group M subtype B, UniProt P03347); test: Gag precursor cross-linking and processing in U1 cells (Western blotting); format: cell-based, HIV-1; details: TNFα-induced U1 cells
T2 construct: endogenous in cells; host or cells: U1 cells (latently HIV-1 infected), induced with TNFα
Method: Thiolester compounds were also tested for their ability to. inhibit HIV-1 replication in TNFα-induced U1 and ACH-2 cells. U1 cells were induced with 5 ng/ml of TNFα in the presence of various concentrations of the thiolesters 44, 45 or 47. Forty-eight hours later the cultures were characterized for virus p24 antigen production and cell viability. […] Compound 44 killed 60% of the cells at 200 μM. […] Precursor processing evaluation performed as described by Turpin (1997) Antiviral Chem. Chemother. 8:60-69. Thus, thiolester PATEs initiate intracellular disulfide cross-linking of precursor polyproteins during late phase virus assembly and mediate a direct virucidal effect via an attack on the mature NCp7 retroviral zinc fingers in the cell-free virus.
Virion cross linking was performed as described by Rice (1995) Science 270:1194-1197 and Turpin (1997) Antiviral Chem. Chemother. 8:60-67. Briefly, highly purified HIV-1MN (11.8 μg total protein) was incubated for 2 hour with concentrations of compound. Virions were concentrated and residual compound was removed by centrifugation (18,000×g, 1 h, 4° C.). The viral pellet was solubilized in 0.5 M Tris-HCl, (pH 6.8), 50% glycerol, 8% SDS and 0.4% bromophenol blue and proteins resolved by Western blotting. Western blotting to detect the expression of HIV-1 proteins in U1 cells or virus pellets for virion cross-linking experiments was carried out as described by Turpin (1996) J. Virol. 70:6180-6189. Briefly, 50 μg of total cellular protein for U1 experiments or the. total virion pellet (11.8 μg total viral protein) for NCp7 cross linking studies was resolved on 4 to 20% polyacrylamide gels in SDS with Tris-Glycine (Novex, San Diego Calif.). Samples for reduced gels were boiled for 5 min in the presence of 5% β-ME prior to loading. Resolved proteins were electroblotted on to polyvinylidene difluoride (PVDF) membranes, and HIV-1 specific proteins were detected using a mixture of goat anti-HIV-1 NCp7 and p24 or anti-NCp7 for virion proteins alone (a kind gift of L. E. Henderson, AIDS Vaccine Program NCI-FCRDC, Frederick, Md.). […]

[3] = biological target: T3, recombinant HIV-1 reverse transcriptase (Human immunodeficiency virus type 1 group M subtype B, UniProt P03366); test: HIV-1 reverse transcriptase assay (rAdT and rCdG template/primer); format: biochemical
T3 construct: recombinant HIV-1 reverse transcriptase; S. Hughes, ABL Basic Research NCI-FCRDC, Frederick Md
Method: as §1

[4] = system: fusion of the HL2/3 and MAGI-CCR-5 cells; test: viral fusion assay (HL2/3 and MAGI-CCR-5 co-culture); format: cell-based
Method: Determination of the effect of the test compounds on viral fusion were carried out as follows. Briefly, HL2/3 cells stably expressing HIV-1 Tat and cell surface gp120 and MAGI-CCR-5 cells stably expressing CD4 and CCR5 on their cell surface, containing a β-galactosidase reporter gene under the control of the HIV-1 LTR were pretreated with test compound for 1 h at 37° C. After incubation, the cells were mixed in […] (2×10^5 MAGI-CCR-5 to 8×10^5 HL2/3 cells) and co-cultured for 18 h at 37° C.; cultures were fixed and stained with X-gal solution for β-galactosidase activity. Blue cells represented the Tat transactivation of the HV-1 LTR upon fusion of the HL2/3 and MAGI-CCR-5 cells via the CD4/CCR5 co-receptor gp120 interaction.

[5] = system: HIV-1NL4-3; test: Virucidal (viral inactivation) assay on MAGI-CCR-5 cells; format: cell-based
Method: The cell-based p24 attachment assay was performed as described in Rice (1995) Science 270:1194-1197. Viral inactivation assays were carried out as described in Rice (1995) Science 270:1194-1197, and Turpin (1997) supra, with minor modifications. Briefly, MAGI-CCR-5 cells were plated (4×10^4 cells per well) in flat bottomed 2-cm well plates for 24 h, after which the culture media was removed and compound-treated virus was added. The virus used was obtained by transient transfection of pNL4-3 into HeLa cells yielding the replication competent NL4-3 virus. Virus containing supernatants were treated for 2 h at 37° C. after which residual compound was removed by centrifugation (18,000×g, 1 h, 4° C.). Virus pellets were resuspended and placed on the MAGI-CCR-5 monolayers and cultured for 48 h. Monolayers were fixed and stained with X-gal solution and blue cells counted.
NCp7 cross-linking is associated with viral inactivation. Whether the ability to crosslink the nucleocapsid protein, as determined by Western blotting, correlated with the ability to inactivate the viruses was tested in a virucidal assay. Virus stocks of HIV-1NL4-3 were incubated with various thiolester compounds. The virus was obtained by transient transfection of a replication-competent pNL4-3 plasmid into HeLa cells. Residual thiolester was removed by centrifugation. […]

| Compound | inhibition of HIV-1 integrase (in words) [1] | cross-linking and processing of viral precursor polyproteins (in words) [2] | inhibition of HIV-1 reverse transcriptase (in words) [3] | inhibition of fusion to host cells (in words) [4] | IC50 [1] | potency at inactivating virus vs compounds 44 and 45 [5] | IC50 [3] | IC50 ([3]; read-out: Reverse transcriptase rCdG I50, Table 7, rCdG template/primer, high dose test 100 μM) | virucidal activity (in words) [5] |
| --- | --- | --- | --- | --- | --- | --- | --- | --- | --- |
| CC(=O)NS(=O)(=O)c1ccc(NC(=O)c2ccccc2SC(=O)CCCCBr)cc1 [Compound 44, N-[2-(5-bromovaleroylthio)benzoyl]sulfacetamide] | did not inhibit | induced β-ME reversible alterations in the mobility of zinc finger containing HIV-1 precursor proteins at a intermediate level | did not inhibit | did not inhibit |  |  |  |  |  |
| CC(=O)NS(=O)(=O)c1ccc(NC(=O)c2ccccc2SC(=O)CCCC[n+]2ccccc2)cc1 [Compound 45, N-[2-(5-pyridinio-valeroylthio)benzoyl]sulfacetamide bromide] | did not inhibit | induced cross-linking of viral precursor polyproteins and prevented processing of those precursors | did not inhibit | did not inhibit |  |  |  |  |  |
| O=C(CCCC[n+]1ccccc1)Sc1ccccc1C(=O)Nc1ccc(S(=O)(=O)c2ccc([N+](=O)[O-])cc2)cc1 [Compound 47] | did not inhibit | induced cross-linking of viral precursor polyproteins and prevented processing of those precursors | did not inhibit | did not inhibit | > 100 µM | approximately 6 fold | > 100 µM | > 100 µM |  |
| O=C(O)CCCC[n+]1ccccc1.[Br-] [Compound 53, 5-pyridiniovaleric acid] |  |  |  |  |  |  |  |  | Neither intravirion cross-linkage of NCp7 nor virucidal activity were detected |
